Experimental data published in patent US20240139210A1, “TREATMENT OF NF-KB-MEDIATED DISEASE” (ReveraGen BioPharma, Inc., priority 2020, published 2024).

How the values were obtained:
[1] = system: ambulant boys aged 4 to <7 years with DMD; test: VBP15-004 bone turnover biomarkers; format: in vivo, human; details: for CTX, difference vs. prednisone / Osteocalcin, difference vs. prednisone / P1NP, difference vs. prednisone: Week 24
[2] = system: ambulant boys aged 4 to <7 years with DMD; test: VBP15-004 growth (height Z scores); format: in vivo, human
Excerpt: (§1) The second period of 24 weeks, where all participants receive vamorolone treatment on either of the two dose levels, will continue to capture additional longer-term safety and tolerability data.

[3] = system: ambulant boys aged 4 to <7 years with DMD; test: VBP15-004 adverse events; design: species or system human; details: in vivo
Excerpt: as §1
The study completion rate at 24 weeks was 94% (or 114 of 121 participants).
Pre-specified AESIs typically for corticosteroids were higher in prednisone-treated subjects than vamorolone-treated subjects after 24 weeks of treatment (Table 10).

participants with DMD [4] = test: Physician-reported adverse events in vamorolone trials (DSUR, DSMB report); format: in vivo, human
Experimental: Study visits took place quarterly, including assessment of clinical laboratory results, vital signs, and AEs. All AEs were coded using the Medical Dictionary for Regulatory Activities (MedDRA version 19.0) system for reporting (preferred term and system organ class). Clinical efficacy assessments were performed at baseline of the VBP15-002 study, at six months (end of VBP15-003 study), and the 12-month midpoint visit of the VBP15-LTE study.
A Data and Safety Monitoring Board report on the VBP15-LTE study covering all participants enrolled in the VBP15-LTE study (inclusive beyond the 12-month midpoint assessment) included three serious AEs (2 myoglobinuria events [in the same participant] and one pneumonia), all deemed unrelated to study drug. For all reported TEAEs, 402 were deemed unrelated to vamorolone, 37 were deemed remotely related, 29 were deemed possibly related, 11 were deemed probably related, and three were deemed definitely related. Of the 14 AEs probably and definitely related to vamorolone, 10 were weight gain, 2 were increased appetite, 1 was Cushingoid features, and 1 was irritability.
The incidences of physician-reported AEs typically for corticosteroid treatment were determined for participants that had been treated with vamorolone 6.0 mg/kg/day (for any duration), taken from the March 2019 Data Safety Update Report (DSUR) (pharmacovigilance report). Incidence rates of Cushingoid features, weight gain, hirsutism, and behavior change were studied (Table 8).

participants with DMD [5] = test: VBP15-LTE Month 24 PODCI and skeletal maturation by wrist x-ray; format: in vivo, human; details: for Bone Age difference to Chronologic Age, mean (SD): LTE Month 24, wrist x-ray
Excerpt: In addition, 39/41 LTE participants had wrist x-ray at Month 24; the mean bone age to chronologic age difference was −1.1 (p<0.001, CI −1.5, −0.7), indicating possible skeletal maturation delay (Table 7).
PODCI is the Pediatrics Outcomes Data Collection Instrument (musculoskeletal disorders). The PODCI is a disease-specific questionnaire developed by the American Academy of Orthopedic Surgeons to measure general health and problems related to bone and muscle conditions in children. A significant increase in mean PODCI upper extremity and physical function standardized score was observed from LTE baseline to Month 24 (7.95±12.54, CI 1.003, 14.897, p=0.0278, n=15) for the combined 2.0 and 6.0 mg/kg/day initial dose group. At the same time, a non-significant decrease in mean PODCI transfer and basic mobility standardized score was observed (−4.38±22.68, CI −16.471, 7.703, p=0.451, n=16) (Table 7).

participants with DMD [6] = test: CINRG DNHS corticosteroid-treated external comparator; format: in vivo, human; details: vamorolone versus corticosteroid-treated DNHS, 18 months
Excerpt: The consecutive vamorolone trials (VBP15-002, VBP15-003, VBP15-LTE) were open-label with no placebo comparator. Corticosteroid-naïve and corticosteroid-treated DMD participant comparators were group-matched participants from the CINRG DNHS (NCT00468832). The CINRG DNHS was an observational, prospective case-control study of 551 participants (440 with DMD, 111 healthy peers). For group matching between vamorolone-treated participants and CINRG DNHS participants, prespecified criteria were defined for matching within the interim statistical analysis plan (iSAP). Age-matched CINRG DNHS participants included those continuously corticosteroid-naïve over an 18-month period (n=19) or continuously corticosteroid-treated over an 18-month period (n=68). For the 68 corticosteroid-treated participants, as this was an observational cohort, corticosteroid doses and regimens varied based on clinician discretion. Although all 68 participants were treated for 18 months continuously, the age at initiation of corticosteroids varied. Thus, the total duration of corticosteroid treatment was longer than 18 months for most participants. […]
The incidences of physician-reported AEs typically for corticosteroid treatment were determined for participants that had been treated with vamorolone 6.0 mg/kg/day (for any duration), taken from the March 2019 Data Safety Update Report (DSUR) (pharmacovigilance report). […]

[7] = 6.0 mg/kg/day vamorolone for any duration, n = 38
[8] = VBP15-LTE, DSMB report, all participants
[9] = LTE baseline to Month 24, combined 2.0 and 6.0 mg/kg/day initial dose group
[10] = assigned to high dose (2.0 and 6.0 mg/kg/day) at start of the study

C[C@@H]1C[C@H]2[C@@H]3CCC4=CC(=O)C=C[C@]4(C)C3=CC[C@]2(C)[C@@]1(O)C(=O)CO [Vamorolone, 17α,21-dihydroxy-16α-methylpregna-1,4,9(11)-triene-3,20-dione]
Osteocalcin, mean (SEM) change at Week 24 ([1]; Vamorolone 2.0 mg (N = 17)): 8.3 (3.1) ng/ml
Procollagen 1 N-Terminal Propeptide (P1NP), mean (SEM) change at Week 24 ([1]; Vamorolone 2.0 mg (N = 17)): 48 (27) ng/mL
Type I Collagen C-Telopeptides (CTX), mean (SEM) change at Week 24 ([1]; Vamorolone 2.0 mg (N = 17)): 177 (52) pg/mL
CTX, difference vs. prednisone ([1]; Vamorolone 2.0 mg): 477 (p < 0.001) pg/mL
Osteocalcin, difference vs. prednisone ([1]; Vamorolone 2.0 mg): 23.5 ng/mL
P1NP, difference vs. prednisone ([1]; Vamorolone 2.0 mg): 182 ng/mL
Osteocalcin, mean (SEM) change at Week 24 ([1]; Vamorolone 6.0 mg (N = 23)): 1.7 (2.8) ng/ml
Procollagen 1 N-Terminal Propeptide (P1NP), mean (SEM) change at Week 24 ([1]; Vamorolone 6.0 mg (N = 23)): −11 (22) ng/mL
Type I Collagen C-Telopeptides (CTX), mean (SEM) change at Week 24 ([1]; Vamorolone 6.0 mg (N = 23)): 90 (44) pg/mL
CTX, difference vs. prednisone ([1]; Vamorolone 6.0 mg): 390 (p < 0.001) pg/mL
Osteocalcin, difference vs. prednisone ([1]; Vamorolone 6.0 mg): 16.9 ng/mL
P1NP, difference vs. prednisone ([1]; Vamorolone 6.0 mg): 124 (p < 0.001) ng/mL
change in height Z scores from baseline to Week 24 ([2]; vamorolone 2.0 mg/kg/day): overall stable height change Z scores
change in height Z scores from baseline to Week 24 ([2]; vamorolone 6.0 mg/kg/day): increased growth rate
clinically relevant psychiatric events, subjects [3]: no vamorolone-treated subjects
moderate/severe behavior problems, subjects ([3]; male, human, 24 weeks): 1.7%
Incidence of physician-reported Cushingoid (participants with DMD [4]; [7]): 2.6%
Incidence of physician-reported behavior change (participants with DMD [4]; [7]): 0%^2
Incidence of physician-reported hypertrichosis/hirsutism (participants with DMD [4]; [7]): 0%
Incidence of physician-reported weight gain (participants with DMD [4]; [7]): 13.2%
Cushingoid features among the 14 AEs probably and definitely related, number (participants with DMD [4]; VBP15-LTE, DSMB report): 1
increased appetite among the 14 AEs probably and definitely related, number (participants with DMD [4]; VBP15-LTE, DSMB report): 2
irritability among the 14 AEs probably and definitely related, number (participants with DMD [4]; VBP15-LTE, DSMB report): 1
weight gain among the 14 AEs probably and definitely related, number (participants with DMD [4]; VBP15-LTE, DSMB report): 10
TEAEs deemed definitely related, number (participants with DMD [4]; [8]): three
TEAEs deemed possibly related, number (participants with DMD [4]; [8]): 29
TEAEs deemed probably related, number (participants with DMD [4]; [8]): 11
TEAEs deemed remotely related, number (participants with DMD [4]; [8]): 37
TEAEs deemed unrelated to vamorolone, number (participants with DMD [4]; [8]): 402
serious AEs, number (participants with DMD [4]; VBP15-LTE, DSMB report, all deemed unrelated to study drug): three
Bone Age difference to Chronologic Age, mean (SD) (participants with DMD [5]; n = 39): −1.1 (1.2), yr
Bone Age difference to Chronologic Age, mean (SD) (participants with DMD [5]; n = 39, listed as vamorolone): −1.1 yr
PODCI transfer and basic mobility, change from baseline (SD) (participants with DMD [5]; [9]): −4.38±22.68
PODCI upper extremity and physical function, change from baseline (SD) (participants with DMD [5]; [9]): 7.95±12.54
PODCI transfer and basic mobility, 24 months from LTE baseline, mean (SD) (participants with DMD [5]; [10]): 81.4 (17.5), n = 18
PODCI transfer and basic mobility, LTE baseline, mean (SD) (participants with DMD [5]; [10]): 86.5 (9.2), n = 19
PODCI upper extremity and physical function, 24 months from LTE baseline, mean (SD) (participants with DMD [5]; [10]): 82.3 (10.9), n = 18
PODCI upper extremity and physical function, LTE baseline, mean (SD) (participants with DMD [5]; [10]): 75.3 (15.1), n = 18
LTE Month 24 Bone Age by wrist x-ray, mean (SD) (participants with DMD [5]; n = 39, chronologic age 8.0 (1.0) yr): 6.8 (1.4), n = 39 yr
Mean height percentile for age, LS mean difference (SE), ANCOVA (participants with DMD [6]): 15.86 percentile
